Source: paper PMC10257182, “Discovery of senolytics using machine learning” (Nature Communications, 2023)
Values joined by “and” are separate entries in the source; they are usually repeats but may differ in a detail not shown here. Equal entries are not always repeated. Where two headings read alike, the source gives them in different places.

What was measured:
Format in all cases: cell-based, human
[1] = system: senescent IMR90 ER:RAS cells (4-OHT-induced); assay: Nuclei count (Hoechst, high content imaging) senolytic assay, oncogene-induced senescence (OIS) model, senescent cells
Method in brief: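 IMR90 ER:RAS (p14), ±4-OHT 100 nM; cpd 10 nM–10 μM, 10-pt […], 72 h, n=3. Fix formaldehyde, Triton X-100, Hoechst 2 μg/ml final. Readout: imaged nuclei count vs untreated; ouabain positive control.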

[2] = system: senescent A549 cells (etoposide-induced); assay: Nuclei count senolytic assay, therapy-induced senescence (TIS) model, senescent cells; conditions: Senescent cells, mean
Method in brief: (§1)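 Etoposide 100 μM, 48 h, + 3 d standard media → senescent A549; untreated A549 = controls. 24 h post-seeding, cpds 10 nM–10 μM final, 10-pt […], 72 h, n=3. Fix formaldehyde, permeabilise Triton-X100, Hoechst 2 μg/ml, image, count nuclei.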

[3] = system: non-senescent control A549 cells; assay: Nuclei count senolytic assay, TIS model, non-senescent control cells; conditions: Control cells, mean
Method in brief: as §1

[4] = Homo sapiens, A549, log (dose) [M] -5, read-out: Mean % Cell Survival
[5] = Homo sapiens, A549, log (dose) [M] -5.33, read-out: Mean % Cell Survival
[6] = Homo sapiens, A549, log (dose) [M] -5.66, read-out: Mean % Cell Survival
[7] = Homo sapiens, A549, log (dose) [M] -6, read-out: Mean % Cell Survival
[8] = Homo sapiens, A549, log (dose) [M] -6.33, read-out: Mean % Cell Survival
[9] = Homo sapiens, A549, log (dose) [M] -6.66, read-out: Mean % Cell Survival
[10] = Homo sapiens, A549, log (dose) [M] -7, read-out: Mean % Cell Survival
[11] = Homo sapiens, A549, log (dose) [M] -7.33, read-out: Mean % Cell Survival
[12] = Homo sapiens, A549, log (dose) [M] -7.66, read-out: Mean % Cell Survival
[13] = Homo sapiens, A549, log (dose) [M] -8, read-out: Mean % Cell Survival

Compound: CC(C)=CCc1c(O)cc2oc3cc(O)c(O)c(CC=C(C)C)c3c(=O)c2c1O [Gamma mangostin, gamma mangostin]
- % Cell Survival ([1]; Senescent cells, log (dose) [M] -5, individual replicates, SUP FIG 4C): 68.9759% and 85.4054% and 104.1% and 60.479%
- % Cell Survival ([1]; Senescent cells, log (dose) [M] -5.33, individual replicates, SUP FIG 4C): 98.1928% and 112.613% and 125.668% and 83.9521%
- % Cell Survival ([1]; Senescent cells, log (dose) [M] -5.66, individual replicates, SUP FIG 4C): 81.0241% and 178.198% and 139.216% and 80.9581%
- % Cell Survival ([1]; Senescent cells, log (dose) [M] -6, individual replicates, SUP FIG 4C): 64.6084% and 123.964% and 135.651% and 83.2335%
- % Cell Survival ([1]; Senescent cells, log (dose) [M] -6.33, individual replicates, SUP FIG 4C): 91.7169% and 121.982% and 131.907% and 40.8383%
- % Cell Survival ([1]; Senescent cells, log (dose) [M] -6.66, individual replicates, SUP FIG 4C): 78.1627% and 116.757% and 113.904% and 77.1257%
- % Cell Survival ([1]; Senescent cells, log (dose) [M] -7, individual replicates, SUP FIG 4C): 99.8494% and 112.432% and 120.856% and 67.0659%
- % Cell Survival ([1]; Senescent cells, log (dose) [M] -7.33, individual replicates, SUP FIG 4C): 98.3434% and 101.081% and 114.082% and 90.8982%
- % Cell Survival ([1]; Senescent cells, log (dose) [M] -7.66, individual replicates, SUP FIG 4C): 107.681% and 108.829% and 116.934% and 93.4132%
- % Cell Survival ([1]; Senescent cells, log (dose) [M] -8, individual replicates, SUP FIG 4C): 107.53% and 115.315% and 113.725% and 84.9102%
- Mean % Cell Survival ([1]; Senescent, log (dose) [M] -5, 72 h, mean n=3 (Fig 3C)): 79.74%
- Mean % Cell Survival ([1]; Senescent, log (dose) [M] -5.33, 72 h, mean n=3 (Fig 3C)): 105.106%
- Mean % Cell Survival ([1]; Senescent, log (dose) [M] -5.66, 72 h, mean n=3 (Fig 3C)): 119.849%
- Mean % Cell Survival ([1]; Senescent, log (dose) [M] -6, 72 h, mean n=3 (Fig 3C)): 101.864%
- Mean % Cell Survival ([1]; Senescent, log (dose) [M] -6.33, 72 h, mean n=3 (Fig 3C)): 96.6111%
- Mean % Cell Survival ([1]; Senescent, log (dose) [M] -6.66, 72 h, mean n=3 (Fig 3C)): 96.4872%
- Mean % Cell Survival ([1]; Senescent, log (dose) [M] -7, 72 h, mean n=3 (Fig 3C)): 100.051%
- Mean % Cell Survival ([1]; Senescent, log (dose) [M] -7.33, 72 h, mean n=3 (Fig 3C)): 101.101%
- Mean % Cell Survival ([1]; Senescent, log (dose) [M] -7.66, 72 h, mean n=3 (Fig 3C)): 106.714%
- Mean % Cell Survival ([1]; Senescent, log (dose) [M] -8, 72 h, mean n=3 (Fig 3C)): 105.37%
- % Cell Survival ([1]; Senescent, log (dose) [M] -5): 105.907% and 101.805% and 105.566%
- % Cell Survival ([1]; Senescent, log (dose) [M] -5.33): 105.42% and 104.907% and 107.486%
- % Cell Survival ([1]; Senescent, log (dose) [M] -5.66): 112.424% and 103.215% and 110.173%
- % Cell Survival ([1]; Senescent, log (dose) [M] -6): 104.019% and 94.1906% and 105.054%
- % Cell Survival ([1]; Senescent, log (dose) [M] -6.33): 116.322% and 101.974% and 111.9%
- % Cell Survival ([1]; Senescent, log (dose) [M] -6.66): 112.85% and 97.8003% and 108.125%
- % Cell Survival ([1]; Senescent, log (dose) [M] -7): 120.95% and 109.419% and 113.308%
- % Cell Survival ([1]; Senescent, log (dose) [M] -7.33): 110.231% and 111.901% and 120.282%
- % Cell Survival ([1]; Senescent, log (dose) [M] -7.66): 99.6955% and 109.475% and 108.701%
- % Cell Survival ([1]; Senescent, log (dose) [M] -8): 101.705% and 108.629% and 104.99%
- Mean % Cell Survival ([2]; log (dose) [M] -5): 104.426%
- Mean % Cell Survival ([2]; log (dose) [M] -5.33): 105.938%
- Mean % Cell Survival ([2]; log (dose) [M] -5.66): 108.604%
- Mean % Cell Survival ([2]; log (dose) [M] -6): 101.088%
- Mean % Cell Survival ([2]; log (dose) [M] -6.33): 110.065%
- Mean % Cell Survival ([2]; log (dose) [M] -6.66): 106.259%
- Mean % Cell Survival ([2]; log (dose) [M] -7): 114.559%
- Mean % Cell Survival ([2]; log (dose) [M] -7.33): 114.138%
- Mean % Cell Survival ([2]; log (dose) [M] -7.66): 105.957%
- Mean % Cell Survival ([2]; log (dose) [M] -8): 105.108%
- Mean % Cell Survival ([3]; log (dose) [M] -5): 93.7374%
- Mean % Cell Survival ([3]; log (dose) [M] -5.33): 87.8038%
- Mean % Cell Survival ([3]; log (dose) [M] -5.66): 85.4347%
- Mean % Cell Survival ([3]; log (dose) [M] -6): 84.7862%
- Mean % Cell Survival ([3]; log (dose) [M] -6.33): 88.6728%
- Mean % Cell Survival ([3]; log (dose) [M] -6.66): 87.417%
- Mean % Cell Survival ([3]; log (dose) [M] -7): 92.9654%
- Mean % Cell Survival ([3]; log (dose) [M] -7.33): 92.7713%
- Mean % Cell Survival ([3]; log (dose) [M] -7.66): 95.9525%
- Mean % Cell Survival ([3]; log (dose) [M] -8): 100.153%

Compound: COc1cc(/C=C/C(=O)O[C@H]2CC[C@]34C[C@]35CC[C@]3(C)[C@@H]([C@H](C)CCC=C(C)C)CC[C@@]3(C)[C@@H]5CC[C@H]4C2(C)C)ccc1O [Gamma oryzanol, gamma oryzanol]
- viability at 10 µM ([1]; Homo sapiens, IMR-90, 72 h, Senescent, log (dose) [M] -5, 72 h, mean n=3 (Fig 3C), read-out: Mean % Cell Survival): 145%
- viability at 4.677 µM ([1]; Homo sapiens, IMR-90, 72 h, Senescent, log (dose) [M] -5.33, 72 h, mean n=3 (Fig 3C), read-out: Mean % Cell Survival): 134%
- viability at 2.188 µM ([1]; Homo sapiens, IMR-90, 72 h, Senescent, log (dose) [M] -5.66, 72 h, mean n=3 (Fig 3C), read-out: Mean % Cell Survival): 135%
- viability at 1 µM ([1]; Homo sapiens, IMR-90, 72 h, Senescent, log (dose) [M] -6, 72 h, mean n=3 (Fig 3C), read-out: Mean % Cell Survival): 139%
- viability at 0.4677 µM ([1]; Homo sapiens, IMR-90, 72 h, Senescent, log (dose) [M] -6.33, 72 h, mean n=3 (Fig 3C), read-out: Mean % Cell Survival): 141%
- viability at 0.2188 µM ([1]; Homo sapiens, IMR-90, 72 h, Senescent, log (dose) [M] -6.66, 72 h, mean n=3 (Fig 3C), read-out: Mean % Cell Survival): 142%
- viability at 0.1 µM ([1]; Homo sapiens, IMR-90, 72 h, Senescent, log (dose) [M] -7, 72 h, mean n=3 (Fig 3C), read-out: Mean % Cell Survival): 132%
- viability at 0.04677 µM ([1]; Homo sapiens, IMR-90, 72 h, Senescent, log (dose) [M] -7.33, 72 h, mean n=3 (Fig 3C), read-out: Mean % Cell Survival): 151%
- viability at 0.02188 µM ([1]; Homo sapiens, IMR-90, 72 h, Senescent, log (dose) [M] -7.66, 72 h, mean n=3 (Fig 3C), read-out: Mean % Cell Survival): 154%
- viability at 0.01 µM ([1]; Homo sapiens, IMR-90, 72 h, Senescent, log (dose) [M] -8, 72 h, mean n=3 (Fig 3C), read-out: Mean % Cell Survival): 125%
- viability at 10 µM ([1]; Homo sapiens, IMR-90, Senescent cells, log (dose) [M] -5, individual replicates, SUP FIG 4C, read-out: % Cell Survival): 150%
- viability at 2.188 µM ([1]; Homo sapiens, IMR-90, Senescent cells, log (dose) [M] -5.66, individual replicates, SUP FIG 4C, read-out: % Cell Survival): 137%
- viability at 0.4677 µM ([1]; Homo sapiens, IMR-90, Senescent cells, log (dose) [M] -6.33, individual replicates, SUP FIG 4C, read-out: % Cell Survival): 153%
- viability at 0.01 µM ([1]; Homo sapiens, IMR-90, Senescent, log (dose) [M] -8, read-out: % Cell Survival): 81.6%
- senolytic activity (in words) ([1]; experimental screen, OIS IMR90 ER:RAS): inactive
- viability at 10 µM [2, 4]: 96.8%
- viability at 4.68 µM [2, 5]: 100%
- viability at 2.19 µM [2, 6]: 105%
- viability at 1 µM [2, 7]: 106%
- viability at 0.468 µM [2, 8]: 107%
- viability at 0.219 µM [2, 9]: 105%
- viability at 0.1 µM [2, 10]: 114%
- viability at 0.0468 µM [2, 11]: 126%
- viability at 0.0219 µM [2, 12]: 61.5%
- viability at 0.01 µM [2, 13]: 76%
- viability at 10 µM [3, 4]: 37.8%
- viability at 4.68 µM [3, 5]: 35%
- viability at 2.19 µM [3, 6]: 87.4%
- viability at 1 µM [3, 7]: 76.1%
- viability at 0.468 µM [3, 8]: 75.3%
- viability at 0.219 µM [3, 9]: 109%
- viability at 0.1 µM [3, 10]: 105%
- viability at 0.0468 µM [3, 11]: 103%
- viability at 0.0219 µM [3, 12]: 106%
- viability at 0.01 µM [3, 13]: 103%
